The source of these data is ChEMBL document CHEMBL1201862, “PubChem BioAssay data set” (2004).

Among the test systems are SNB-75; EKVX; HCC 2998; LOX IMVI; A549; TK-10; MOLT-4; COLO 205; RXF 393; SF-539; SNB-19; CCRF-CEM; SK-OV-3; RPMI-8226; K562; ACHN; SF-295; U-251; HCT-116; UO-31.
Holding throughout (experiment): NCI tumour cell line growth inhibition, 48 h

Each structure is given as a SMILES string.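 Method: 48-hour compound exposure of cells in 96-well plates, five concentrations, linear interpolation of endpoints. GI50 = concentration required for 50% inhibition of growth.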 Active and inactive are the calls of the source. Cut-off read from the data, not from the text of the source: active = GI50 up to about 1.1 µM and inactive = higher.

As for `O=C1N/C(=N/N=C/C(O)C(O)C(O)C(O)CO)N/C1=C\c1c[nH]c2ccccc12` (stereo unspecified), the GI50 is > 100 µM (inactive) in the assay with SNB-75; 34.6 µM (inactive) with EKVX; > 100 µM (inactive) with HCC 2998; > 100 µM (inactive) in the assay with LOX IMVI; > 100 µM (inactive) with A549; > 100 µM (inactive) in the assay with TK-10. The GI50 with MOLT-4 is 93.8 µM (inactive); with COLO 205, > 100 µM (inactive); in the assay with RXF 393, > 100 µM (inactive); in the assay with SF-539, > 100 µM (inactive); in the assay with SNB-19, 38.4 µM (inactive); with CCRF-CEM, 39.1 µM (inactive). The GI50 is > 100 µM (inactive) with SK-OV-3; 89.7 µM (inactive) in the assay on RPMI-8226; 83.9 µM (inactive) in the assay on K562; > 100 µM (inactive) in the assay with ACHN; > 100 µM (inactive) in the assay with SF-295; 69.3 µM (inactive) with U-251. Besides, in the assay on HCT-116, the GI50 was > 100 µM (inactive).
As for `C/C(CC(=O)Nc1ccc(C)c(C)c1)=N\NC(N)=O`, the GI50 with SNB-75, in the assay with EKVX, in the assay with HCC 2998, in the assay with UO-31, in the assay on LOX IMVI and with A549 was > 100 µM (inactive) each time. The GI50 in the assay on TK-10, in the assay on MOLT-4, with COLO 205, with RXF 393, in the assay on SF-539 and in the assay with CCRF-CEM was > 100 µM (inactive) throughout. Further, the GI50 in the assay on SK-OV-3, in the assay with RPMI-8226, in the assay on K562, in the assay with ACHN, in the assay on SF-295 and in the assay on U-251 was > 100 µM (inactive) each time. Besides, in the assay on HCT-116, the GI50 is > 100 µM (inactive).
For the molecule `Cn1c2cc([N+](=O)[O-])ccc2c(=O)c2c(O)cc3c(c21)C=CC(C)(C)O3`, the GI50 in the assay with SNB-75 was 10.1 µM (inactive); with EKVX it was 22 µM (inactive); in the assay with HCC 2998, > 100 µM (inactive); in the assay on UO-31, 26.7 µM (inactive); in the assay with LOX IMVI it was > 100 µM (inactive); with A549, 57.4 µM (inactive). The GI50 was 37.1 µM (inactive) in the assay on TK-10; > 100 µM (inactive) in the assay on MOLT-4; > 100 µM (inactive) in the assay with COLO 205; 25.9 µM (inactive) with RXF 393; 14.8 µM (inactive) in the assay on SF-539; 31.6 µM (inactive) in the assay on SNB-19. Further, the GI50 with CCRF-CEM is > 100 µM (inactive); in the assay on SK-OV-3 it was 21.9 µM (inactive); in the assay with RPMI-8226 it was > 100 µM (inactive); in the assay on K562 it was > 100 µM (inactive); with ACHN, > 100 µM (inactive); in the assay with SF-295, 16.9 µM (inactive). Also, the GI50 in the assay with U-251 is > 100 µM (inactive).
Regarding `C[C@@H]1CCC2[C@@H](C)[C@@H](OCCO[C@H]3OC4O[C@@]5(C)CCC6[C@H](C)CCC([C@H]3C)[C@@]46OO5)OC3O[C@@]4(C)CCC1[C@]32OO4` (stereo partly specified), the GI50 is 0.546 µM (active) with SNB-75; 1.48 µM (inactive) in the assay on EKVX; 6.92 µM (inactive) in the assay with HCC 2998; 0.201 µM (active) in the assay on UO-31; 0.0565 µM (active) with LOX IMVI; 0.0634 µM (active) in the assay on A549. In addition, the GI50 was 0.206 µM (active) with TK-10; 0.0483 µM (active) in the assay with MOLT-4; 0.0514 µM (active) with COLO 205; 0.94 µM (active) with RXF 393; 0.202 µM (active) in the assay on SF-539; 0.0682 µM (active) in the assay with CCRF-CEM. Besides, the GI50 was 0.577 µM (active) with SK-OV-3; < 0.01 µM (active) in the assay on RPMI-8226; 0.0212 µM (active) with K562; 0.154 µM (active) with ACHN; 0.405 µM (active) in the assay on SF-295; 0.0902 µM (active) in the assay on U-251. The GI50 in the assay with HCT-116 is 0.0251 µM (active).
With `CCOC(=O)/C=C/C(=O)O/C=C/[N+](=O)[O-]`, the GI50 with SNB-75, in the assay with EKVX, with HCC 2998, in the assay with UO-31, with LOX IMVI and with TK-10 was > 100 µM (inactive) throughout. Moreover, the GI50 in the assay on MOLT-4 was > 100 µM (inactive); in the assay on COLO 205, > 100 µM (inactive); in the assay on RXF 393 it was > 100 µM (inactive); in the assay on SF-539 it was > 100 µM (inactive); with CCRF-CEM it was 4.54 µM (inactive); in the assay with SK-OV-3, > 100 µM (inactive). In addition, the GI50 with RPMI-8226, in the assay on ACHN, with SF-295, in the assay with U-251 and in the assay on HCT-116 was > 100 µM (inactive) each time.
Turning to `CCOC(OCC)C(CCc1ccccc1)c1c(N)nc(N)[nH]c1=O` (stereo unspecified), the GI50 was > 100 µM (inactive) in the assay with SNB-75; 3.76 µM (inactive) in the assay on EKVX; 26.1 µM (inactive) in the assay on HCC 2998; 34.8 µM (inactive) in the assay on UO-31; 64.3 µM (inactive) in the assay with LOX IMVI; 54.1 µM (inactive) in the assay with A549. Further, the GI50 in the assay with TK-10 was 66.2 µM (inactive); with MOLT-4, 34.3 µM (inactive); in the assay on COLO 205, 17.4 µM (inactive); with RXF 393, 57.7 µM (inactive); in the assay with SF-539, > 100 µM (inactive); with SNB-19, > 100 µM (inactive). The GI50 with CCRF-CEM was 53.6 µM (inactive); in the assay on SK-OV-3 it was 25.9 µM (inactive); in the assay with RPMI-8226, 38.6 µM (inactive); in the assay on K562, 24.7 µM (inactive); in the assay on SF-295 it was 53.1 µM (inactive); in the assay with U-251 it was 81.1 µM (inactive). For the same molecule, the GI50 in the assay on HCT-116 is 65.3 µM (inactive).
Regarding `CCOC(=O)C12CCSC1C1(C#N)C(C#N)=CC2(N=P(c2ccccc2)(c2ccccc2)c2ccccc2)n2c(=O)n(-c3ccccc3)c(=O)n21` (stereo unspecified), the GI50 is 47 µM (inactive) in the assay with SNB-75; 82.2 µM (inactive) in the assay with EKVX; 27.7 µM (inactive) in the assay on HCC 2998; 24.2 µM (inactive) in the assay with UO-31; 39.9 µM (inactive) in the assay with LOX IMVI; 34.9 µM (inactive) in the assay on A549. Moreover, the GI50 in the assay with TK-10 is > 100 µM (inactive); with MOLT-4, 30.3 µM (inactive); in the assay on COLO 205 it was 37.8 µM (inactive); in the assay with RXF 393 it was > 100 µM (inactive); in the assay on SF-539, 73.6 µM (inactive); in the assay on SNB-19, 39.3 µM (inactive). The GI50 with CCRF-CEM was 34.5 µM (inactive); in the assay on RPMI-8226, 26.1 µM (inactive); in the assay on K562, 33.9 µM (inactive); in the assay on ACHN, 40.2 µM (inactive); with SF-295, 36.6 µM (inactive); in the assay on U-251, 42.4 µM (inactive). In the assay on HCT-116, the GI50 was 36.9 µM (inactive).
